{"source": "patent US20070166367A1", "about": "“Adept or gdept producing acetaldehyde” (priority 2004, published 2007)", "key": {"Daudi lymphoma cells": {"tested_on": "Daudi lymphoma cells", "assay": "chronic exposure of Daudi lymphoma cells to acetaldehyde in tissue culture", "format": "cell-based", "method": "The effect of acetaldehyde on Daudi lymphoma cells was investigated. Chronic exposure to acetaldehyde of Daudi lymphoma cells in tissue culture was investigated with the media and acetaldehyde replaced every 24 hours, with the lids either tight closed or slightly open (the norm for tissue culture).\nB. Repeat method as above changing media and replacing acetaldehyde every 24 hours.\nResults are shown as the number of cells×10^4 remaining viable at each time point. (Days 0-6)"}, "[1]": {"assay": "acetaldehyde in breath and blood after ethanol consumption", "format": "in vivo", "conditions": "suggested from breath values and partition coefficient"}, "[2]": {"assay": "in vitro acetaldehyde toxicity assay", "format": "cell-based", "conditions": "human, Jurkat cells; higher concentrations (500 uM and 1 mM), day 3, FIG. 1; read-out: viable cell numbers as % of starting number", "method": "(§1) Standard tissue culture techniques were used to maintain Hela, Daudi, Jurkat, CMT-64 cells in flasks in DMEM+10% FCS in a 37° C. incubator.\n(§2) Cell lines subcloned into 25-cm^2 flasks and incubated in media containing dilutions of acetaldehyde, cisplatin or both. Flasks remained sealed during incubation and the media and acetaldehyde/cisplatin were replaced daily. Viable cell counts were made using Trypan blue exclusion and a standard haemocytometer."}, "Hela": {"tested_on": "Hela", "assay": "in vitro acetaldehyde toxicity assay", "format": "cell-based", "conditions": "250 uM acetaldehyde", "method": "as §1, §2"}, "Jurkat": {"tested_on": "Jurkat", "assay": "in vitro acetaldehyde toxicity assay", "format": "cell-based", "method": "as §1, §2"}, "[3]": {"biological_target": "T1, Acetaldehyde dehydrogenase 2 (ALDH2) (Homo sapiens, UniProt P05091)", "T1 sequence (P05091 18-517)": "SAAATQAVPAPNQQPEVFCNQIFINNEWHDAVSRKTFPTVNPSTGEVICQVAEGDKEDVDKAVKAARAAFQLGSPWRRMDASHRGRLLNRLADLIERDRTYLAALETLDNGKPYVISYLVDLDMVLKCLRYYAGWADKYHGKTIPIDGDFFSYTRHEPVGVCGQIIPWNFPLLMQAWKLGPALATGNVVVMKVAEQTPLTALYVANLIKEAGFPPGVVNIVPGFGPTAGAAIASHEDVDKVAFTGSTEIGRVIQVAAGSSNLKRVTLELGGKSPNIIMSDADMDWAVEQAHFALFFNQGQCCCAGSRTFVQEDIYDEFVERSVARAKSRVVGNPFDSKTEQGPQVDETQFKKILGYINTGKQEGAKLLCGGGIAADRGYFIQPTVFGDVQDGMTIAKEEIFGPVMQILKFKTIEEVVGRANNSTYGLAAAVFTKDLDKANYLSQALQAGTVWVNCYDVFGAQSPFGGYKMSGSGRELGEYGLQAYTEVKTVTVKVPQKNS", "conditions": "cited from earlier work"}, "DNA": {"tested_on": "DNA", "conditions": "cited from earlier work"}, "[4]": {"tested_on": "CaCo-2 (Human colorectal cancer cells)", "conditions": "cited from earlier work; for Doubling Time: 72 hrs"}, "Human Fibroblasts": {"tested_on": "Human Fibroblasts", "conditions": "5 hr exposure, cited from earlier work"}, "Human Lymphocytes": {"tested_on": "Human Lymphocytes", "conditions": "cited from earlier work"}, "[5]": {"conditions": "tissue culture at 37° C., cited from earlier work"}, "[6]": {"conditions": "ethanol fed animals, cited from earlier work"}, "[7]": {"conditions": "during alcohol metabolism; cited from earlier work"}, "[8]": {"conditions": "cited from earlier work"}, "[9]": {"conditions": "ethanol IP 3 g/kg, +30 minutes, cited from earlier work"}, "[10]": {"conditions": "in vivo; cited from earlier work"}}, "note": "Like-named read-outs stand apart in the source and are kept apart here.", "data": [{"compound": "CC=O", "note": "[acetaldehyde]", "values": [{"measurement": "Numbers of viable cells", "setting": "Daudi lymphoma cells; 100 μM closed, 4S hr", "value": 280000, "unit": "mL⁻¹"}, {"measurement": "Numbers of viable cells", "setting": "Daudi lymphoma cells; 100 μM closed, 22 hr", "value": 230000, "unit": "mL⁻¹"}, {"measurement": "Numbers of viable cells", "setting": "Daudi lymphoma cells; 100 μM closed, 68 hr", "value": 370000, "unit": "mL⁻¹"}, {"measurement": "Numbers of viable cells", "setting": "Daudi lymphoma cells; 100 μM open, 22 hr", "value": 260000, "unit": "mL⁻¹"}, {"measurement": "Numbers of viable cells", "setting": "Daudi lymphoma cells; 100 μM open, 68 hr", "value": 510000, "unit": "mL⁻¹"}, {"measurement": "cell killing", "setting": "Daudi lymphoma cells; 100 μM, 6 days exposure", "value": "high levels of cell death"}, {"measurement": "cell killing", "setting": "Daudi lymphoma cells; 100 μM, by 68 hours", "value": "no cell death but some inhibition of the rate of growth"}, {"measurement": "number of cells remaining viable", "setting": "Daudi lymphoma cells; 100 μM, day 1", "value": "25 ×10^4"}, {"measurement": "number of cells remaining viable", "setting": "Daudi lymphoma cells; 100 μM, day 2", "value": "28 ×10^4"}, {"measurement": "number of cells remaining viable", "setting": "Daudi lymphoma cells; 100 μM, day 3", "value": "32 ×10^4"}, {"measurement": "number of cells remaining viable", "setting": "Daudi lymphoma cells; 100 μM, day 4", "value": "26 ×10^4"}, {"measurement": "number of cells remaining viable", "setting": "Daudi lymphoma cells; 100 μM, day 5", "value": "19 ×10^4"}, {"measurement": "number of cells remaining viable", "setting": "Daudi lymphoma cells; 100 μM, day 6", "value": "2 (two) ×10^4"}, {"measurement": "number of cells remaining viable", "setting": "Daudi lymphoma cells; 250 μM, day 1", "value": "31 ×10^4"}, {"measurement": "number of cells remaining viable", "setting": "Daudi lymphoma cells; 250 μM, day 2", "value": "25 ×10^4"}, {"measurement": "number of cells remaining viable", "setting": "Daudi lymphoma cells; 250 μM, day 3", "value": "14 ×10^4"}, {"measurement": "number of cells remaining viable", "setting": "Daudi lymphoma cells; 250 μM, day 4", "value": "13 ×10^4"}, {"measurement": "number of cells remaining viable", "setting": "Daudi lymphoma cells; 250 μM, day 5", "value": "0 ×10^4"}, {"measurement": "cell killing", "setting": "Daudi lymphoma cells; 500 μM and above, 3-4 days exposure", "value": "high levels of cell death"}, {"measurement": "Numbers of viable cells", "setting": "Daudi lymphoma cells; 500 μM closed, 4S hr", "value": 180000, "unit": "mL⁻¹"}, {"measurement": "Numbers of viable cells", "setting": "Daudi lymphoma cells; 500 μM closed, 22 hr", "value": 200000, "unit": "mL⁻¹"}, {"measurement": "Numbers of viable cells", "setting": "Daudi lymphoma cells; 500 μM closed, 68 hr", "value": 40000, "unit": "mL⁻¹"}, {"measurement": "Numbers of viable cells", "setting": "Daudi lymphoma cells; 500 μM open, 4S hr", "value": 210000, "unit": "mL⁻¹"}, {"measurement": "Numbers of viable cells", "setting": "Daudi lymphoma cells; 500 μM open, 22 hr", "value": 220000, "unit": "mL⁻¹"}, {"measurement": "Numbers of viable cells", "setting": "Daudi lymphoma cells; 500 μM open, 68 hr", "value": 40000, "unit": "mL⁻¹"}, {"measurement": "number of cells remaining viable", "setting": "Daudi lymphoma cells; 500 μM, day 1", "value": "31 ×10^4"}, {"measurement": "number of cells remaining viable", "setting": "Daudi lymphoma cells; 500 μM, day 2", "value": "16 ×10^4"}, {"measurement": "number of cells remaining viable", "setting": "Daudi lymphoma cells; 500 μM, day 3", "value": "11 ×10^4"}, {"measurement": "number of cells remaining viable", "setting": "Daudi lymphoma cells; 500 μM, day 4", "value": "3 ×10^4"}, {"measurement": "number of cells remaining viable", "setting": "Daudi lymphoma cells; 500 μM, day 5", "value": "0 ×10^4"}, {"measurement": "cell killing", "setting": "Daudi lymphoma cells; 500 μM, within 3 days", "value": "nearly all the cells are dead"}, {"measurement": "number of cells remaining viable", "setting": "Daudi lymphoma cells; 750 μM, day 1", "value": "28 ×10^4"}, {"measurement": "number of cells remaining viable", "setting": "Daudi lymphoma cells; 750 μM, day 2", "value": "18 ×10^4"}, {"measurement": "number of cells remaining viable", "setting": "Daudi lymphoma cells; 750 μM, day 3", "value": "5 ×10^4"}, {"measurement": "number of cells remaining viable", "setting": "Daudi lymphoma cells; 750 μM, day 4", "value": "2 ×10^4"}, {"measurement": "number of cells remaining viable", "setting": "Daudi lymphoma cells; 750 μM, day 5", "value": "0 ×10^4"}, {"measurement": "Numbers of viable cells", "setting": "Daudi lymphoma cells; 1000 μM closed, 4S hr", "value": 30000, "unit": "mL⁻¹"}, {"measurement": "Numbers of viable cells", "setting": "Daudi lymphoma cells; 1000 μM closed, 22 hr", "value": 140000, "unit": "mL⁻¹"}, {"measurement": "Numbers of viable cells", "setting": "Daudi lymphoma cells; 1000 μM closed, 68 hr", "value": 0, "unit": "mL⁻¹"}, {"measurement": "Numbers of viable cells", "setting": "Daudi lymphoma cells; 1000 μM open, 4S hr", "value": 80000, "unit": "mL⁻¹"}, {"measurement": "Numbers of viable cells", "setting": "Daudi lymphoma cells; 1000 μM open, 22 hr", "value": 180000, "unit": "mL⁻¹"}, {"measurement": "Numbers of viable cells", "setting": "Daudi lymphoma cells; 1000 μM open, 68 hr", "value": 20000, "unit": "mL⁻¹"}, {"measurement": "cell killing", "setting": "Daudi lymphoma cells; 1000 μM, within 3 days", "value": "kill all the cells"}, {"measurement": "blood values", "setting": "[1]", "value": "1 to 260", "unit": "µM"}, {"measurement": "viability at 3 days", "setting": "[2]", "value": 7, "unit": "%"}, {"measurement": "effect on proliferation", "setting": "Hela", "value": "reduction in the rate of proliferation"}, {"measurement": "effect on proliferation", "setting": "Jurkat; 250 uM acetaldehyde", "value": "reduction in the rate of proliferation"}, {"measurement": "viable cells", "setting": "Jurkat; day 4, FIG. 1", "value": "no Jurkat cells viable"}, {"measurement": "Km", "setting": "[3]", "value": 3.5, "unit": "µM"}, {"measurement": "concentration that is toxic and produces irreparable DNA damage", "setting": "DNA", "value": 1.56, "unit": "mM"}, {"measurement": "Cytotoxicity", "setting": "[4]; 500 μM and 1000 μM acetaldehyde for 72 hrs", "value": "No significant effects."}, {"measurement": "Doubling Time", "setting": "[4]; 500 μM", "value": "150 % of control"}, {"measurement": "Doubling Time", "setting": "[4]; 1000 μM", "value": "270 % of control"}, {"measurement": "% survival", "setting": "Human Fibroblasts; 1 mM", "value": 75, "unit": "%"}, {"measurement": "% survival", "setting": "Human Fibroblasts; 2 mM", "value": 55, "unit": "%"}, {"measurement": "Number of metaphases (cell divisions) counted", "setting": "Human Lymphocytes; 90 μM", "value": 200}, {"measurement": "Number of metaphases (cell divisions) counted", "setting": "Human Lymphocytes; 180 μM", "value": 200}, {"measurement": "Number of metaphases (cell divisions) counted", "setting": "Human Lymphocytes; 360 μM", "value": 200}, {"measurement": "Number of metaphases (cell divisions) counted", "setting": "Human Lymphocytes; 720 μM", "value": 130}, {"measurement": "Number of metaphases (cell divisions) counted", "setting": "Human Lymphocytes; 1080 μM", "value": 23}, {"measurement": "Number of metaphases (cell divisions) counted", "setting": "Human Lymphocytes; 1440 μM", "value": "0 and no growth"}, {"measurement": "½ life", "setting": "[5]", "value": "about 30 minutes"}, {"measurement": "½ life", "setting": "[5]; listed as Acetaldehyde", "value": 30, "unit": "min"}, {"measurement": "cellular conc", "setting": "[6]; colon", "value": "about 250 μM"}, {"measurement": "Acetaldehyde levels in colonic contents", "setting": "[6]", "value": "exceed 3 mM"}, {"measurement": "levels in the liver", "setting": "[7]", "value": "~100", "unit": "µM"}, {"measurement": "concentrations of acetaldehyde in the breath", "setting": "[8]; after ethanol consumption, different patient groups", "value": "0.005 to 1.3", "unit": "µM"}, {"measurement": "systemic concentrations of acetaldehyde", "setting": "[8]; volunteers consuming alcohol with an hepatic ALDH inhibitor", "value": "up to 240 uM"}, {"measurement": "acetaldehyde levels", "setting": "[9]; ADH overexpressing heart", "value": 70, "unit": "µM"}, {"measurement": "acetaldehyde levels", "setting": "[9]; control heart", "value": 15, "unit": "µM"}, {"measurement": "level described for systemic acetaldehyde toxicity", "setting": "[10]", "value": "40 to 60", "unit": "µM"}]}]}
